# Earlier results in publication PMC9302689 (British Journal of Clinical Pharmacology, 2022).
# Key:
# [1] = cited from earlier work
# [2] = cited from earlier work; remark: listed apart in the source
Compound,NeuroCart effects [1],Effect on serum cortisol and prolactin levels [2]
CNC1(c2ccccc2Cl)CCCCC1=O (stereo not shown) [Ketamine],"decreased saccadic peak velocity, adaptive tracking and alertness and increased body sway and psychedelic effects",
CN(C)CCCC1(c2ccc(F)cc2)OCc2cc(C#N)ccc21 (stereo not shown) [citalopram],,increase levels of these hormones
CN(C)CCC[C@@]1(c2ccc(F)cc2)OCc2cc(C#N)ccc21 [escitalopram],,increase levels of these hormones
Buprenorphine,decreased adaptive tracking and saccadic peak velocity and increased body sway,
